From US9777002B2, “Inhibitors of the renal outer medullary potassium channel” (Merck Sharp & Dohme Corp., priority 2012, dated 2017) come the findings set out here.

The target in the test is T1, hROMK (hKir1.1) (Homo sapiens, UniProt P48048).
T1 construct: expressed in transfected cells
T1 sequence (P48048 1-391): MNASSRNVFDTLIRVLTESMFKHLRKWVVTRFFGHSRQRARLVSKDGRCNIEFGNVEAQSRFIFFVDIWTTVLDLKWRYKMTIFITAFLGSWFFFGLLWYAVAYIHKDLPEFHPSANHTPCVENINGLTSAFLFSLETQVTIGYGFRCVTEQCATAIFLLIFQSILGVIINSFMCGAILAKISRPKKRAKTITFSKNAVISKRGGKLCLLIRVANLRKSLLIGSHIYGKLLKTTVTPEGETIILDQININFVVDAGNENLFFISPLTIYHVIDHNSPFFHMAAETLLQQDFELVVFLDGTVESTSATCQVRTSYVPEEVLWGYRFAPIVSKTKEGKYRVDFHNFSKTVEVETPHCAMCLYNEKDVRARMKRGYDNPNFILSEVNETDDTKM
Kind of test: Thallium Flux Assay. The class given is cell-based. As to conditions: HEK293 cells stably expressing hROMK (hKir1.1). The method, then: Cell Culture Conditions—HEK293 cells stably expressing hROMK (hKir1.1) were grown at 37° C. in a 10% CO2 humidified incubator in complete growth media: Dulbecco's Modified Eagle Medium supplemented with non-essential amino acids, Penicillin/Streptomycin/Glutamine, G418 and FBS. At >80% confluency, aspirate the media from the flask and rinse with 10 mL Calcium/Magnesium-free PBS. Add 5 mL of 1× trypsin (prepared in Ca/Mg Free PBS) to T-225 flask and return flask to 37° C./CO2 incubator for 2-3 minutes. To dislodge the cell, gently bang the side of the flask with your hand. Triturate the cells completely and then transfer the cells to 25 mL complete media. Centrifuge at 1,500 rpm for 6 min followed by resuspension in complete growth media and determine cell concentration. For typical re-seeding, 4E6 cells/T-225 flask will attain >80% confluency in 4 days. Under ideal growth conditions and appropriate tissue culture practices, this cell line is stable for 40-45 passages.
FluxOR Kit Components (Invitrogen F10017)
• FluxOR™ Reagent (Component A) • FluxOR™ Assay Buffer (Component B)—10× Concentrate • PowerLoad™ Concentrate (Component C)—100× Concentrate • Probenecid (Component D)—Lyophilized sample is kept at −20° C. Water soluble, 100× after solubilization in 1 mL water. Store at 4° C. • FluxOR™ Chloride-free Buffer (Component E)—5× Concentrate • Potassium sulfate (K2SO4) Concentrate (Component F)—125 mM in water. Store at 4° C. • Thallium sulfate (Tl2SO4) Concentrate (Component G)—50 mM in water. Store at 4° C. • DMSO (dimethyl sulfoxide, Component H)—1 mL (100%) Reagent Preparation: FluxOR Working Solutions • 1000× FluxOR™ Reagent: Reconstitute a vial of component A in 100 μl DMSO; Mix well; Store 10 μl aliquots at −20° C. • 1× FluxOR™ Assay Buffer: Dilute Component B 10-fold with water; Adjust pH to 7.4 with Hepes/NaOH; Filter and store at 4° C. • Probenecid/Assay Buffer: 100 mL of 1× FluxOR™ Assay Buffer; 1 mL of reconstituted component D; Store at 4° C. • Loading Buffer (per microplate): 10 μl 1000× FluxOR™ Reagent; 100 μl component C; 10 mL Probenecid/Assay Buffer • Compound Buffer (per microplate): 20 mL Probenecid/Assay Buffer; 0.3 mM ouabain (10 mM ouabain in water can be stored in amber bottle/aluminum foil at room temperature); Test compound • 1× FluxOR™ Chloride-Free Buffer: Prepare 1× working solution in water. Can be stored at room temperature • Stimulant Buffer (prepared at 5× final concentration in 1× FluxOR™Chloride-Free Buffer): 7.5 mM Thallium sulfate and 0.75 mM Potassium sulfate (to give a final assay concentration of 3 mM Thallium/0.3 mM Potassium). Store at 4° C. when not in use. If kept sterile, this solution is good for months.
Assay Protocol—The ROMK channel functional thallium flux assay is performed in 384 wells, using the FLIPR-Tetra instrument. HEK-hKir1.1 cells are seeded in Poly-D-Lysine microplates and kept in a 37° C.-10% CO2 incubator overnight. On the day of the experiment, the growth media is replaced with the FluxOR™ reagent loading buffer and incubated, protected from light, at ambient temperature (23-25° C.) for 90 min. The loading buffer is replaced with assay buffer± test compound followed by 30 min incubation at ambient temperature, where the Thallium/Potassium stimulant is added to the microplate.
• 1. Seed HEK-hKir1.1 cells (50 μl at 20,000 cells/well) in 384-well PDL coated Microplates • 2. Allow cells to adhere overnight in humidified 37° C./10% CO2 incubator • 3. Completely remove cell growth media from microplate and replace with 25 μl loading buffer • 4. Incubate Microplate at room temperature, protected form light, for 90 min • 5. Remove loading buffer and replace with 25 μl 1× Assay Buffer±test compound. • 6. Incubate microplate at room temperature, protected from light, for 30 min • 7. At FLIPR-Tetra 384: Add stimulant (Thallium/Potassium) solution to microplate and monitor fluorescence. Excitation=400 nm, Emission=460 & 580 nm. Collect data for ˜10 min. […]

The term IC50 denotes the concentration needed to halve the response being measured. The compound `COc1ccc(C(=O)NC2CCN(CC(O)c3ccc4c(c3C)COC4=O)CC2)cc1C#N` (stereo not drawn) [Example 10, 3-Cyano-N-(1-(2-hydroxy-2-(4-methyl-1-oxo-1,3-dihydroisobenzofuran-5-yl)ethyl)piperidin-4-yl)-4-methoxybenzamide] came in with an IC50 of 60 nM.
The compound `Cc1c(CCN2CCC(NC(=O)c3ccc(C#N)c(F)c3)CC2)ccc2c1COC2=O` [Example 11, 4-Cyano-3-fluoro-N-(1-(2-(4-methyl-1-oxo-1,3-dihydroisobenzofuran-5-yl)ethyl)piperidin-4-yl)benzamide] returned a 50% inhibitory concentration (IC50) of 30 nM.
The figure for `Cc1c(C(O)CN2CCC(NC(=O)c3ccc4c(c3)COC4=O)CC2)ccc(F)c1C#N` (stereo not drawn) [Example 13, N-(1-(2-(3-Cyano-4-fluoro-2-methylphenyl)-2-hydroxyethyl)piperidin-4-yl)-1-oxo-1,3-dihydroisobenzofuran-5-carboxamide] is 350 nM; for `COc1cc(C(=O)NC2CCN(CC(O)c3ccc(F)c(C#N)c3C)CC2)ccc1C#N` (stereo not drawn) [Example 14, 4-Cyano-N-(1-(2-(3-cyano-4-fluoro-2-methylphenyl)-2-hydroxyethyl)piperidin-4-yl)-3-methoxybenzamide] it is 70 nM.
With `Cc1c(CCN2CCC(NC(=O)c3ccnc(-n4cnnn4)c3)CC2)ccc2c1COC2=O` [Example 15, N-(1-(2-(4-Methyl-1-oxo-1,3-dihydroisobenzofuran-5-yl)ethyl)piperidin-4-yl)-2-(1H-tetrazol-1-yl)isonicotinamide] the figure was 450 nM.
The figure for `Cc1c(C(O)CN2CCC(NC(=O)c3ccc(C#N)c(F)c3)CC2)ccc2c1COC2=O` (stereo not drawn) [Example 16, 4-Cyano-3-fluoro-N-(1-(2-hydroxy-2-(4-methyl-1-oxo-1,3-dihydroisobenzofuran-5-yl)ethyl)piperidin-4-yl)benzamide] is 50 nM; for `COc1cc(F)c(C#N)cc1C(=O)NC1CCN(CCc2ccc3c(c2C)COC3=O)CC1` [Example 17, 5-Cyano-4-fluoro-2-methoxy-N-(1-(2-(4-methyl-1-oxo-1,3-dihydroisobenzofuran-5-yl)ethyl)piperidin-4-yl)benzamide] it is 30 nM; for `Cc1cc(F)c(C(=O)NC2CCN(CCc3ccc4c(c3C)COC4=O)CC2)cc1C#N` [Example 18, 5-Cyano-2-fluoro-4-methyl-N-(1-(2-(4-methyl-1-oxo-1,3-dihydroisobenzofuran-5-yl)ethyl)piperidin-4-yl)benzamide] it is 950 nM.
In the case of `Cc1cc(C(=O)NC2CCN(CCc3ccc4c(c3C)COC4=O)CC2)ncc1C#N` [Example 19, 5-Cyano-4-methyl-N-(1-(2-(4-methyl-1-oxo-1,3-dihydroisobenzofuran-5-yl)ethyl)piperidin-4-yl)picolinamide], half-maximal inhibition (IC50) was put at 50 nM.
With `COc1cc(F)c(C#N)cc1C(=O)NC1CCN(C[C@H](O)c2ccc3c(c2C)COC3=O)CC1` [Example 20, (R)-5-Cyano-4-fluoro-N-(1-(2-hydroxy-2-(4-methyl-1-oxo-1,3-dihydroisobenzofuran-5-yl)ethyl)piperidin-4-yl)-2-methoxybenzamide] the figure was 70 nM.
The figure for `COc1cc(F)c(C#N)cc1C(=O)NC1CCN(C[C@@H](O)c2ccc3c(c2C)COC3=O)CC1` [Example 21, (S)-5-Cyano-4-fluoro-N-(1-(2-hydroxy-2-(4-methyl-1-oxo-1,3-dihydroisobenzofuran-5-yl)ethyl)piperidin-4-yl)-2-methoxybenzamide] is 150 nM.
With `Cc1cc(C(=O)NC2CCN(C[C@H](O)c3ccc4c(c3C)COC4=O)CC2)ncc1C#N` [Example 22, (R)-5-cyano-N-(1-(2-hydroxy-2-(4-methyl-1-oxo-1,3-dihydroisobenzofuran-5-yl)ethyl)piperidin-4-yl)-4-methylpicolinamide] the figure was 20 nM; with `Cc1cc(C(=O)NC2CCN(C[C@@H](O)c3ccc4c(c3C)COC4=O)CC2)ncc1C#N` [Example 23, (S)-5-cyano-N-(1-(2-hydroxy-2-(4-methyl-1-oxo-1,3-dihydroisobenzofuran-5-yl)ethyl)piperidin-4-yl)-4-methylpicolinamide], 720 nM.
`Cc1c([C@@H](O)CN2CCC(NC(=O)c3ccc(C#N)nc3)CC2)ccc2c1COC2=O` [Example 24, (R)-6-Cyano-N-(1-(2-hydroxy-2-(4-methyl-1-oxo-1,3-dihydroisobenzofuran-5-yl)ethyl)piperidin-4-yl)nicotinamide] returned an IC50 of 150 nM.
The figure for `Cc1cc(C(=O)NC2CCN(C[C@H](O)c3ccc4c(c3C)COC4=O)CC2)ccc1C#N` [Example 25, (R)-4-Cyano-N-(1-(2-hydroxy-2-(4-methyl-1-oxo-1,3-dihydroisobenzofuran-5-yl)ethyl)piperidin-4-yl)-3-methylbenzamide] is 30 nM; for `CCOc1cc(C#N)ccc1C(=O)NC1CCN(C[C@H](O)c2ccc3c(c2C)COC3=O)CC1` [Example 26, (R)-4-Cyano-2-ethoxy-N-(1-(2-hydroxy-2-(4-methyl-1-oxo-1,3-dihydroisobenzofuran-5-yl)ethyl)piperidin-4-yl)benzamide] it is 70 nM; for `Cc1c([C@@H](O)CN2CCC(NC(=O)c3ccc(C#N)cc3)CC2)ccc2c1COC2=O` [Example 27, (R)-4-Cyano-N-(1-(2-hydroxy-2-(4-methyl-1-oxo-1,3-dihydroisobenzofuran-5-yl)ethyl)piperidin-4-yl)benzamide] it is 30 nM.
With `Cc1c([C@@H](O)CN2CCC(NC(=O)c3ccc(C#N)cn3)CC2)ccc2c1COC2=O` [Example 28, (R)-5-Cyano-N-(1-(2-hydroxy-2-(4-methyl-1-oxo-1,3-dihydroisobenzofuran-5-yl)ethyl)piperidin-4-yl)picolinamide] the figure was 30 nM; with `Cc1c(CCN2CCC(NC(=O)c3cccc(-n4cnnn4)c3)CC2)ccc2c1COC2=O` [Example 30, N-(1-(2-(4-Methyl-1-oxo-1,3-dihydroisobenzofuran-5-yl)ethyl)piperidin-4-yl)-3-(1H-tetrazol-1-yl)benzamide], 120 nM; with `Cc1c(CCN2CCC(NC(=O)c3ccc(-n4cccn4)cc3)CC2)ccc2c1COC2=O` [Example 31, N-(1-(2-(4-Methyl-1-oxo-1,3-dihydroisobenzofuran-5-yl)ethyl)piperidin-4-yl)-4-(1H-pyrazol-1-yl)benzamide], 100 nM.
In the case of `Cc1c(CCN2CCC(NC(=O)c3cc(C#N)cs3)CC2)ccc2c1COC2=O` [Example 32, 4-Cyano-N-(1-(2-(4-methyl-1-oxo-1,3-dihydroisobenzofuran-5-yl)ethyl)piperidin-4-yl)thiophene-2-carboxamide], the IC50 was determined as 480 nM.
